Measured values published in patent US11440907B1 (Merck Patent GmbH, priority 2018, dated 2022).

Tested on: XBP1(u)-luciferase splicing reporter in HepG2 hepatoma cells
Experiment: HepG2 XBP1 reporter assay (XBP1(u)-Luc)
Assay type: cell-based
Details: 6 hours after compound addition, Table 4
Source text: HepG2 XBP1 Reporter Assay
HepG2 hepatoma cells were transduced with a retrovirus encoding the cDNA for unspliced (u) XBP1, which contains a non-processed intron, fused to the cDNA for firefly luciferase. Upon induction of ER stress, the non-processed intron of XBP1(u) is spliced out by active IRE1alpha endonuclease. The resulting spliced (s) XBP1 is now in frame with luciferase which causes the production of active luciferase protein, resulting in bioluminescence
HepG2 XBP1(u)-Luc cells were plated […] Cultured cells with a stably transfected reporter construct were plated at approximately 30,000 cells per well into 96 well multi-well plates for twenty four hours. The testing compounds were then added to the wells in 3-fold serial dilutions using a twenty seven micromolar top concentration. A series of control wells for each cell type received only compound solvent. Six hours after the addition of compound, reporter activity for luciferase was assayed, by addition of the SteadyGlo luminescence reagent (Promega). The reporter luminescence activity was measured using Pherastar plate reader (BMG Labtech). Readings was normalized to DMSO only treated cells, and normalized activities were then used in the IC50 calculations. The HepG2 XBP1 reporter assay data are summarized in Tables 3-5: A<0.6 μM; 0.6 μM≤B<2.0 μM; 2.0 μM≤C<5.0 μM; D≥5.0 μM.

| IC50 | Structure (SMILES) |
| --- | --- |
| < 600 nM | COc1cc(Cl)c([C@H]2COCCCN2c2cc(C)nc(N)n2)cc1O [C-95] |

Same assay, conditions: Homo sapiens, 6 h, six hours after addition of compound

| IC50 | Structure (SMILES) |
| --- | --- |
| 600 to 2000 nM | Cc1cc(N2CCCOCC2c2cnc(CS(C)(=O)=O)cc2OC(F)F)nc(N)n1 [D-85] |
| ≥ 5000 nM | Cc1cc(N2CCCOC[C@@H]2c2cc(O)c(C(=O)NCCO)cc2Cl)nc(N)n1 [D-130] |
| < 600 nM | CCc1cc(N2CCCOCC2c2cc(O)c(CS(C)(=O)=O)cc2Cl)nc(N)n1 [D-98] |
| 600 to 2000 nM | CNC(=O)c1cc(Cl)c(C2COCCCN2c2cc(C)nc(N)n2)cc1O [D-118] |
| ≥ 5000 nM | CCOc1cc([C@@H]2COCCCN2c2cc(C)nc(N)n2)c(Cl)cc1OCC(N)=O [D-176] |
| ≥ 5000 nM | Cc1cc(N2CCCOCC2c2ccc(S(N)(=O)=O)cc2)nc(N)n1 [D-102] |
| ≥ 5000 nM | CNC(=O)c1cc(Cl)c([C@@H]2COCCCN2c2cc(C)nc(N)n2)cc1O [D-182] |
| 600 to 2000 nM | Cc1cc(N2CCCOC[C@@H]2c2ccc(C3CCN(C4COC4)CC3)cc2Cl)nc(N)n1 [D-69] |
| < 600 nM | CC(=O)Nc1cc(Cl)c(C2COCCCN2c2cc(C)nc(N)n2)cc1O [D-109] |
| ≥ 5000 nM | CCOC(=O)c1cc(Cl)c(C2COCCCN2c2cc(C)nc(N)n2)cc1C#N [D-134] |
| 2000 to 5000 nM | Cc1cc(N2CCCOC[C@H]2c2ccc([C@H]3CCCN3)cc2Cl)nc(N)n1 [D-89] |
| < 600 nM | Cc1cc(N2CCCOC[C@@H]2c2cc3c(cc2Cl)NC[C@@](C)(C(=O)NCCO)O3)nc(N)n1 [D-133] |
| ≥ 5000 nM | Cc1cc(N2CCCOC[C@H]2c2cc(O)c(C)cc2Cl)nc(N)n1 [D-165] |
| 2000 to 5000 nM | Cc1cc(N2CCCOC[C@@H]2c2ccc(C3CCNCC3)cc2Cl)nc(N)n1 [D-66] |
| 600 to 2000 nM | Cc1cc(N2CCCOC[C@H]2c2cc3c(cc2Cl)NC[C@@](C)(C(=O)OC(C)C)O3)nc(N)n1 [D-128] |
| ≥ 5000 nM | CS(=O)(=O)c1ccc(C2COCCCN2c2ccnc(N)n2)c(Cl)c1 [D-138] |
| ≥ 5000 nM | CCc1cc(N2CCCOCC2c2cc(O)c(S(C)(=O)=O)cc2Cl)nc(N)n1 [D-87] |
| 600 to 2000 nM | COC(=O)c1cc(C2COCCCN2c2cc(C)nc(N)n2)c(Cl)cc1C#N [D-77] |
| ≥ 5000 nM | Cc1cc(N2CCCOC[C@H]2c2cc(O)c(C(=O)N(C)C)cc2Cl)nc(N)n1 [D-183] |
| 600 to 2000 nM | CCOc1cc(C2COCCCN2c2cc(C)nc(N)n2)c(Cl)cc1OCC(N)=O [D-72] |

| IC50 | Structure (SMILES) |
| --- | --- |
| 600 to 2000 nM | CCOc1cc(C2COCCCN2c2cc(C)nc(N)n2)c(Cl)cc1OCC(=O)NC(C)(C)C [D-47] |
| 2000 to 5000 nM | Cc1cc(N2CCCOC[C@@H]2c2cc(O)c(C(=O)NC(C)C)cc2Cl)nc(N)n1 [D-123] |
| ≥ 5000 nM | Cc1cc(N2CCCOC[C@H]2c2cc(O)c(CS(C)(=O)=O)cc2Cl)nc(N)n1 [D-171] |
| ≥ 5000 nM | Cc1cc(N2CCCOC[C@H]2c2cc(N)c(OC(F)(F)F)cc2Cl)nc(N)n1 [D-161] |
| 2000 to 5000 nM | Cc1cc(N2CCCOCC2c2ccc3[nH]ncc3c2)nc(N)n1 [D-108] |
| < 600 nM | Cc1cc(N2CCCOC[C@@H]2c2cc(O)c(C(=O)N3CCOCC3)cc2Cl)nc(N)n1 [D-137] |
| ≥ 5000 nM | Cc1cc(N2CCCOC[C@H]2c2cc(O)c(C(=O)NC(C)C)cc2Cl)nc(N)n1 [D-121] |
| ≥ 5000 nM | Cc1cc(N2CCCOCC2c2ccc3ncnn3c2)nc(N)n1 [D-175] |
| ≥ 5000 nM | Cc1cc(N2CCCOC[C@H]2c2ccc(C3CCN(C4COC4)CC3)cc2Cl)nc(N)n1 [D-163] |
| 2000 to 5000 nM | Cc1cc(N2CCCOC[C@@H]2c2ccc(NC(=O)C3(F)CCOC3)cc2Cl)nc(N)n1 (stereo partly drawn) [D-62] |
| ≥ 5000 nM | Cc1cc(N2CCCOC[C@H]2c2cc(CN)c(Cl)cc2C)nc(N)n1 [D-174] |
| ≥ 5000 nM | Cc1cc(N2CCCOC[C@H]2c2cc(O)c(C(=O)NCCO)cc2Cl)nc(N)n1 [D-185] |
| 600 to 2000 nM | Cc1cc(N2CCCOC[C@@H]2c2ccc(N3C[C@@H](C)O[C@@H](C)C3)cc2Cl)nc(N)n1 [D-84] |
| ≥ 5000 nM | CCOc1cc(C2COCCCN2c2cc(C)nc(N)n2)c(Cl)cc1OCC(=O)O [D-160] |
| 2000 to 5000 nM | Cc1cc(N2CCCOCC2c2ccc(NC(=O)CC3CC3)cc2Cl)nc(N)n1 [D-94] |
| 600 to 2000 nM | Cc1cc(N2CCCOCC2c2ccc(NC(=O)CC(C)(C)C)cc2Cl)nc(N)n1 [D-96] |
| ≥ 5000 nM | Cc1cc(N2CCCOCC2c2ccc(S(C)(=O)=O)cc2C#N)nc(N)n1 [D-190] |
| ≥ 5000 nM | C#CCOc1cc(Cl)c([C@@H]2COCCCN2c2cc(C)nc(N)n2)cc1OC [D-178] |
| ≥ 5000 nM | Cc1cc(N2CCCOCC2c2ccc(C(=O)O)cc2Cl)nc(N)n1 [D-187] |
| 600 to 2000 nM | Cc1cc(N2CCCOC[C@@H]2c2cc(O)c(C(N)=O)cc2Cl)nc(N)n1 [D-115] |

Same assay, conditions: Homo sapiens, 6 hours after compound addition, Table 4

| IC50 | Structure (SMILES) |
| --- | --- |
| < 600 nM | Cc1cc(N2CCCOCC2c2ccc(OCS(C)(=O)=O)cc2Cl)nc(N)n1 (centres unmarked) [C-120, 4-[3-(2-Chloro-4-methanesulfonylmethoxy-phenyl)-[1,4]oxazepan-4-yl]-6-methyl-pyrimidin-2-ylamine] |
| < 600 nM | CCOc1cc(Cl)c([C@H]2COCCCN2c2cc(C)nc(N)n2)cc1Cl [C-117] |
| 2000 to 5000 nM | Cc1cc(N2CCCOCC2c2cc(C)c(Cl)cc2Cl)nc(N)n1 (centres unmarked) [C-10] |
| 600 to 2000 nM | Cc1cc(N2CCCOC[C@@H]2c2cc(Cl)c(O)cc2Cl)nc(N)n1 [C-87] |
| < 600 nM | COc1cc(Cl)c([C@@H]2COCCCN2c2cc(C)nc(N)n2)cc1O [C-94] |
| ≥ 5000 nM | CCOc1cc(Cl)c([C@@H]2COCCCN2c2cc(C)nc(N)n2)cc1OCC [C-104] |
| 600 to 2000 nM | Cc1cc(N2CCCOC[C@@H]2c2cc(F)c(N3CCC(C)(O)CC3)cc2Cl)nc(N)n1 [C-125] |
| 2000 to 5000 nM | Cc1cc(N2CCCOC[C@@H]2c2ccc(OC[C@@H](O)CO)cc2Cl)nc(N)n1 [C-64, (S)-3-{4-[(S)-4-(2-Amino-6-methyl-pyrimidin-4-yl)-[1,4]oxazepan-3-yl]-3-chloro-phenoxy}-propane-1,2-diol] |
| < 600 nM | CSCOc1ccc([C@@H]2COCCCN2c2cc(C)nc(N)n2)c(Cl)c1 [C-122, 4-[(R)-3-(2-Chloro-4-methylsulfanylmethoxy-phenyl)-[1,4]oxazepan-4-yl]-6-methyl-pyrimidin-2-ylamine] |
| 2000 to 5000 nM | COc1cc(Cl)c(C2COCCCN2c2cc(C)nc(N)n2)cc1OC1CCC1 (centres unmarked) [C-56] |
| 600 to 2000 nM | C=CCOc1cc(Cl)c(C2COCCCN2c2cc(C)nc(N)n2)cc1OC (centres unmarked) [C-45] |
| 600 to 2000 nM | Cc1cc(N2CCCOCC2c2cc3c(cc2Cl)COCO3)nc(N)n1 (centres unmarked) [C-96] |
| < 600 nM | CCOc1cc(C2COCCCN2c2cc(C)nc(N)n2)c(Cl)cc1OC (centres unmarked) [C-29] |
| ≥ 5000 nM | CSCOc1ccc([C@H]2COCCCN2c2cc(C)nc(N)n2)c(Cl)c1 [C-121, 4-[(S)-3-(2-Chloro-4-methylsulfanylmethoxy-phenyl)-[1,4]oxazepan-4-yl]-6-methyl-pyrimidin-2-ylamine] |
| < 600 nM | Cc1cc(N2CCCOCC2c2cc3c(cc2Cl)OCC2(CC2)CO3)nc(N)n1 (centres unmarked) [C-90] |
| < 600 nM | Cc1cc(N2CCCOC[C@@H]2c2cc(C(F)(F)F)c(N)cc2Cl)nc(N)n1 [C-119] |
| 600 to 2000 nM | Cc1cc(N2CCCOCC2c2cc(F)c(-c3ccncc3)cc2Cl)nc(N)n1 (centres unmarked) [C-48] |
| 600 to 2000 nM | CCOC(=O)COc1cc(Cl)c(C2COCCCN2c2cc(C)nc(N)n2)cc1OC (centres unmarked) [C-89] |

| IC50 | Structure (SMILES) |
| --- | --- |
| < 600 nM | COc1cc([C@H]2COCCCN2c2cc(C)nc(N)n2)c(Cl)cc1O [C-78] |
| 600 to 2000 nM | COc1cc(Cl)c(C2COCCCN2c2cc(C)nc(N)n2)cc1F (centres unmarked) [C-28] |
| ≥ 5000 nM | Cc1cc(N2CC(C)COCC2c2ccc(CS(C)(=O)=O)cc2Cl)nc(N)n1 (centres unmarked) [C-63, 4-[3-(2-Chloro-4-methanesulfonylmethyl-phenyl)-6-methyl-[1,4]oxazepan-4-yl]-6-methyl-pyrimidin-2-ylamine] |
| ≥ 5000 nM | Cc1cc(N2CCCOC[C@@H]2c2cc3c(cc2Cl)OCC(=O)N3)nc(N)n1 [C-67] |
| ≥ 5000 nM | COc1cc(Cl)c([C@@H]2COCCCN2c2cc(C)nc(N)n2)cc1OC [C-81] |
| < 600 nM | Cc1cc(N2CCCOC[C@H]2c2cc3c(cc2Cl)OCC(=O)N3)nc(N)n1 [C-68] |
| < 600 nM | Cc1cc(N2CCCOCC2c2ccc(CS(C)(=O)=O)cc2OC(F)F)nc(N)n1 (centres unmarked) [C-75] |
| 600 to 2000 nM | Cc1cc(N2CCCOCC2c2cc(S(N)(=O)=O)c(Cl)cc2Cl)nc(N)n1 (centres unmarked) [C-8] |
| < 600 nM | CCOc1cc(Cl)c([C@H]2COCCCN2c2cc(C)nc(N)n2)cc1OCC [C-103] |
| ≥ 5000 nM | COc1cc([C@@H]2COCCCN2c2cc(C)nc(N)n2)c(Cl)cc1O [C-79] |
| 600 to 2000 nM | Cc1cc(N2CCCOCC2c2cc(N)c(C(F)(F)F)cc2Cl)nc(N)n1 (centres unmarked) [C-77] |
| 2000 to 5000 nM | Cc1cc(N2CCCOCC2c2cc(Cl)c(F)cc2Cl)nc(N)n1 (centres unmarked) [C-100] |
| < 600 nM | Cc1cc(N2CCCOC[C@@H]2c2cc3c(cc2Cl)n(C)c(=O)n3C)nc(N)n1 [C-93] |
| ≥ 5000 nM | Cc1cc(N2CC3(CC3)COCC2c2ccc(CS(C)(=O)=O)cc2Cl)nc(N)n1 (centres unmarked) [C-62, 4-[7-(2-Chloro-4-methanesulfonylmethyl-phenyl)-5-oxa-8-aza-spiro[2.6]non-8-yl]-6-methyl-pyrimidin-2-ylamine] |
| 600 to 2000 nM | COc1cc(C2COCCCN2c2cc(C)nc(N)n2)c(Cl)cc1OCC(N)=O (centres unmarked) [C-97] |
| < 600 nM | Cc1cc(N2CCCOC[C@@H]2c2cc3c(cc2Cl)CCN3)nc(N)n1 [C-134] |
| 600 to 2000 nM | Cc1cc(N2CCCOCC2c2cc(C)c(O)cc2Cl)nc(N)n1 (centres unmarked) [C-128] |
| 600 to 2000 nM | COc1cc(C2COCCCN2c2ccnc(N)n2)c(Cl)cc1OC1CCCC1 (centres unmarked) [C-102] |
